Patent US9924714B2, “Impregnatable matrix of plant, animal or synthetic origin or mixtures of same, containing a uniformly distributed antimicrobial compound, method for impregnating said matrix with a compound, and use thereof in the production of antimicrobial elements” (COMPAÑIA MINERA SAN GERONIMO, priority 2013, dated 2018)

Columns and labels:
Type in all cases: cell-based
[1] = system: Acinetobacter baumannii UDP456; test: Sensidisc and thin cloth growth inhibition test (Example 3); design: unit not given here
Method: (§1) In this example, the antimicrobial activity of the invention was determined by testing on sensidiscs. On order to do this, they were prepared 5 mm filter paper discs, embedded with various concentrations of compound Cu4SO4(OH)6 (Alkaline Copper Sulfate) of the study dissolved in DMSO (0 μg, 200 μg, 400 μg, 600 μg, 800 μg). In addition, pieces of cloth of about 2×2 cm were prepared and embedded with the new product. Paper discs and fabric were deposited on a background lawn, which was performed as follows:
(§2) From a bacterial culture of 16 hours, with the strain of interest, it was performed a 1/30 dilution of the culture with fresh medium and incubated under stirring at 37° C. until reaching the exponential growth phase (D0600 nm 0.4-0.5). It was taken an aliquot of 100 μL of the culture in exponential phase, and deposited in 4 mL of Mueller-Hinton soft agar at 0.8% (previously melted and stabilized at 50° C.). The mixture was deposited on a Petri dish with 20 mL of Mueller-Hinton agar base. Once the agar was gelled, each of the discs with different amounts of the test compound were deposited on the background lawn, and incubated at 37° C. during 48 hours.
(§3) Experiments were performed in triplicate in independently, using as negative control discs with the solvent DMSO alone and cloth without the product of study. As positive control were used commercial discs used with 30 μg of antibiotic Kanamycin (Km).

[2] = system: Staphylococcus epidermidis; test: as above; design: unit not given here
Method: as §1, §2, §3

[3] = system: Enterobacter aerogenes ATCC13048; test: as above; design: unit not given here
Method: as §1, §2, §3

[4] = system: Enterococcus faecium ISP133/04; test: as above; design: unit not given here
Method: as §1, §2, §3

[5] = system: Escherichia coli ATCC25922; test: as above; design: unit not given here
Method: as §1, §2, §3

[6] = system: Citrobacter freundii ISP1949/99; test: as above; design: unit not given here
Method: as §1, §2, §3

[7] = system: Enterococcus faecalis ATCC29212; test: as above
Method: as §1, §2, §3

[8] = system: Streptococcus pneumonia ATCC14325; test: as above
Method: as §1, §2, §3

[9] = system: Staphylococcus aureus ATCC25923; test: as above
Method: as §1, §2, §3

[10] = system: Pseudomonas aeruginosa PAOI; test: as above
Method: as §1, §2, §3

[11] = system: Streptococcus pyogenes ATCC2367; test: as above
Method: as §1, §2, §3

[12] = system: Klebsiella pneumoniae ATCC4352; test: as above
Method: as §1, §2, §3

[13] = system: all bacterial strains tested; test: Antibacterial activity of alkaline copper sulfate, summary (Example 3); conditions: summary in words of Table 5
Method: as §1, §2
Experiments were performed in triplicate in independently, using as negative control discs with the solvent DMSO alone and cloth without the product of study. […]

`O=S(=O)([O-])[O-].[Cu+2].[Cu+2].[Cu+2].[Cu+2].[OH-].[OH-].[OH-].[OH-].[OH-].[OH-]` [Alkaline Copper Sulphate, Alkaline Copper Sulfate] gave a Growth inhibition zone ([1]; 200 μg on 5 mm disc) of 11.7 ± 0.6, a Growth inhibition zone ([1]; 400 μg on 5 mm disc) of 15.7 ± 0.6 and a Growth inhibition zone ([1]; 600 μg on 5 mm disc) of 17.0 ± 1.0. For the same compound, the Growth inhibition zone ([1]; 800 μg on 5 mm disc) was 19.7 ± 0.6, the Growth inhibition zone ([2]; 200 μg on 5 mm disc) was 12.0 ± 0.6 and the Growth inhibition zone ([2]; 400 μg on 5 mm disc) was 14.3 ± 0.6. The Growth inhibition zone ([2]; 600 μg on 5 mm disc) was 13.7 ± 1.5, the Growth inhibition zone ([2]; 800 μg on 5 mm disc) was 14.6 ± 0.6 and the Growth inhibition zone ([3]; 200 μg on 5 mm disc) was 7.3 ± 1.5. For the same compound, the Growth inhibition zone ([3]; 400 μg on 5 mm disc) was 9.7 ± 1.5, the Growth inhibition zone ([3]; 600 μg on 5 mm disc) was 9.7 ± 0.6 and the Growth inhibition zone ([3]; 800 μg on 5 mm disc) was 9.7 ± 1.5. For the same compound, the Growth inhibition zone ([4]; 200 μg on 5 mm disc) was 6.0 ± 1.0, the Growth inhibition zone ([4]; 400 μg on 5 mm disc) was 6.0 ± 1.0 and the Growth inhibition zone ([4]; 600 μg on 5 mm disc) was 6.0 ± 1.0. For the same compound, the Growth inhibition zone ([4]; 800 μg on 5 mm disc) was 6.0 ± 1.0, the Growth inhibition zone ([5]; 200 μg on 5 mm disc) was 13.3 ± 1.4 and the Growth inhibition zone ([5]; 400 μg on 5 mm disc) was 13.0 ± 0.7. It also gave a Growth inhibition zone ([5]; 600 μg on 5 mm disc) of 15.0 ± 0.7, a Growth inhibition zone ([5]; 800 μg on 5 mm disc) of 13.3 ± 0.7 and a Growth inhibition zone ([6]; 200 μg on 5 mm disc) of 8.0 ± 1.0. The Growth inhibition zone ([6]; 400 μg on 5 mm disc) was 10.7 ± 1.5, the Growth inhibition zone ([6]; 600 μg on 5 mm disc) was 11.3 ± 0.6 and the Growth inhibition zone ([6]; 800 μg on 5 mm disc) was 11.3 ± 1.5. It also gave a Growth inhibition zone ([7]; 200 μg on 5 mm disc) of 6.0 ± 1.0 mm, a Growth inhibition zone ([7]; 400 μg on 5 mm disc) of 6.0 ± 1.0 mm and a Growth inhibition zone ([7]; 600 μg on 5 mm disc) of 6.0 ± 1.0 mm. It also gave a Growth inhibition zone ([7]; 800 μg on 5 mm disc) of 6.0 ± 1.0 mm, a Growth inhibition zone ([8]; 200 μg on 5 mm disc) of 5.0 ± 1.0 mm and a Growth inhibition zone ([8]; 400 μg on 5 mm disc) of 8.0 ± 0.7 mm. It also gave a Growth inhibition zone ([8]; 600 μg on 5 mm disc) of 9.0 ± 1.0 mm, a Growth inhibition zone ([8]; 800 μg on 5 mm disc) of 11.0 ± 1.2 mm and a Growth inhibition zone ([9]; 200 μg on 5 mm disc) of 6.0 ± 1.0 mm. For the same compound, the Growth inhibition zone ([9]; 400 μg on 5 mm disc) was 10.3 ± 0.6 mm, the Growth inhibition zone ([9]; 600 μg on 5 mm disc) was 11.7 ± 0.6 mm and the Growth inhibition zone ([9]; 800 μg on 5 mm disc) was 14.0 ± 1.0 mm. It also gave a Growth inhibition zone ([10]; 200 μg on 5 mm disc) of 6.3 ± 1.5 mm, a Growth inhibition zone ([10]; 400 μg on 5 mm disc) of 6.7 ± 1.2 mm and a Growth inhibition zone ([10]; 600 μg on 5 mm disc) of 8.3 ± 0.6 mm. The Growth inhibition zone ([10]; 800 μg on 5 mm disc) was 8.3 ± 1.7 mm, the Growth inhibition zone ([11]; 200 μg on 5 mm disc) was 5.0 ± 1.0 mm and the Growth inhibition zone ([11]; 400 μg on 5 mm disc) was 6.0 ± 1.0 mm. The Growth inhibition zone ([11]; 600 μg on 5 mm disc) was 7.0 ± 1.2 mm, the Growth inhibition zone ([11]; 800 μg on 5 mm disc) was 8.0 ± 1.4 mm and the Growth inhibition zone ([12]; 200 μg on 5 mm disc) was 7.3 ± 0.6 mm. The Growth inhibition zone ([12]; 400 μg on 5 mm disc) was 8.7 ± 0.6 mm, the Growth inhibition zone ([12]; 600 μg on 5 mm disc) was 9.7 ± 0.6 mm and the Growth inhibition zone ([12]; 800 μg on 5 mm disc) was 10.0 mm. The antibacterial activity ([13]; listed as Alkaline Copper Sulfate (OH)6) was “antibacterial activity on all bacterial strains tested” and the antibacterial activity ([13]; listed as product of invention) was “spectrum of antibacterial activity greater than the hydroxyphosphate copper compounds (II) and copper oxychloride (II)”.
